Entries after “also recorded” stand apart in the source; their conditions may differ.
System: 27-mer RNA corresponding to the 16S rRNA A site containing 3 dA residues
Assay: MS-MS CID/CAD protection assay on chimeric 27-mer RNA/DNA
Format: binding, prokaryotic
Conditions: same activation energy as free RNA
Source text: In order to study the binding of paromomycin to the RNA of Example 20, the chimeric RNA/DNA molecule of Example 20 was synthesized using standard automated nucleic acid synthesis protocols on an automated synthesizer. A sample of this nucleic acid was then subjected to ESI followed by CID in a mass spectrometer to afford the fragmentation pattern indicating a lack of structure at the sites of dA incorporation, as described in Example 20. This indicated the accessibility of these dA sites in the structure of the chimeric nucleic acid.
Next, another sample of the chimeric nucleic acid was treated with a solution of paromomycin and the resulting mixture analyzed by ESI followed by CID using a mass spectrometer. […] This was also indicative of binding of the paromomycin to the chimeric nucleic acid, because of the increased mass of the observed ion complex. Further, there was also observed, a shift in the distribution of the multiply charged ion complexes which reflected a change in the conformation of the nucleic acid in the paromomycin-nucleic acid complex into a more compact structure. […]
The mass spectrum obtained from a 5 μM solution of C mixed with 125 nM paromomycin contains [M-5H]^5− ions from free C at m/z 1783.6 and the [M-5H]^5− ions of the paromomycin-C complex at m/z 1907.3. […] Signals from the [M-4H]^4− ions of C and the complex are detected at m/z 2229.8 and 2384.4, respectively. […]

NC[C@@H]1O[C@H](O[C@H]2[C@@H](O)[C@H](O[C@@H]3[C@@H](O)[C@H](N)C[C@H](N)[C@H]3O[C@H]3O[C@H](CO)[C@@H](O)[C@H](O)[C@H]3N)O[C@@H]2CO)[C@H](N)[C@@H](O)[C@@H]1O [Paromomycin]
fragmentation at the dA sites of the ligand-RNA complex on CID/CAD: no fragmentation at the dA sites; also recorded: No cleavage was found to occur; also recorded: No significant fragment ions are observed; also recorded: no fragment ions are detected

Reference: patent US20030083483A1, “Molecular interaction sites of vimentin RNA and methods of modulating the same” (priority 1999, published 2003)
